Assay results: patent publication US8536167B2, “Methods for treating ophthalmic, otic, or nasal infections” (Alcon Research, Ltd., priority 2009, dated 2013)
In brackets after ≈: the same amount, converted by molar mass. Where two headings read alike, the source gives them in different places.

What was measured:
[1] = Ocular pharmacokinetic study following topical administration; assay type: in vivo, New Zealand white rabbits
Description: FIGS. 3 and 4 present the results of ocular pharmacokinetic studies following topical administration of finafloxacin and ciprofloxacin compositions. The studies utilized New Zealand white rabbits, and 45 μl of 0.3% test composition was instilled bilaterally.

[2] = tested on: Staphylococcus aureus - Ciprofloxacin sensitive; assay: In vitro antimicrobial susceptibility test (MIC50); assay type: cell-based
Description: (§1) A finafloxacin composition at pH 5.8 was compared to ciprofloxacin (pH 5.8) and ofloxacin (pH 5.8 and pH 7) compositions using standard in vitro antimicrobial susceptibility tests (M07-08 Methods for Dilution Antimicrobial Susceptibility Tests for Bacteria that Grow Aerobically; Approved Standard-Eighth Edition (January 2009, Clinical and Laboratory Standards Institute), herein incorporated by reference). Minimum inhibitory concentrations (MIC50) were determined using Gram-positive and Gram-negative test organisms commonly found in otic and ophthalmic infections. The MIC50 was the lowest concentration of antibiotic that prevented growth of the test organism, as determined visually by a lack of turbidity.
(§2) The results of the experiment are presented below in TABLE 1 (Gram-positive organisms) and TABLE 2 (Gram-negative organisms).

[3] = tested on: Pseudomonas aeruginosa - Ciprofloxacin sensitive; assay: In vitro antimicrobial susceptibility test (MIC50); assay type: cell-based
Description: as §1, §2

[4] = tested on: Escherichia coli; assay: In vitro antimicrobial susceptibility test (MIC50); assay type: cell-based
Description: as §1, §2

[5] = tested on: Haemophilia influenzae; assay: In vitro antimicrobial susceptibility test (MIC50); assay type: cell-based; conditions: N = 10
Description: as §1, §2

[6] = tested on: Streptococcus pneumonia; assay: In vitro antimicrobial susceptibility test (MIC50); assay type: cell-based; conditions: Streptococcus pneumoniae, N = 10
Description: as §1, §2

[7] = tested on: Pseudomonas aeruginosa - Ciprofloxacin resistant; assay: In vitro antimicrobial susceptibility test (MIC50); assay type: cell-based
Description: as §1, §2

[8] = tested on: Staphylococcus epidermidis - Ciprofloxacin resistant; assay: In vitro antimicrobial susceptibility test (MIC50); assay type: cell-based
Description: as §1, §2

[9] = tested on: Staphylococcus epidermidis - Ciprofloxacin sensitive; assay: In vitro antimicrobial susceptibility test (MIC50); assay type: cell-based
Description: as §1, §2

[10] = tested on: Proteus mirabilis; assay: In vitro antimicrobial susceptibility test (MIC50); assay type: cell-based
Description: as §1, §2

[11] = tested on: Pseudomonas otitidis; assay: In vitro antimicrobial susceptibility test (MIC50); assay type: cell-based; conditions: Metapseudomonas otitidis, N = 10
Description: as §1, §2

[12] = tested on: Enterococcus faecalis; assay: In vitro antimicrobial susceptibility test (MIC50); assay type: cell-based
Description: as §1, §2

[13] = tested on: Staphylococcus aureus - Ciprofloxacin resistant; assay: In vitro antimicrobial susceptibility test (MIC50); assay type: cell-based
Description: as §1, §2

[14] = tested on: Pseudomonas aeruginosa; assay: Rabbit keratitis model (similar test); assay type: in vivo, New Zealand white rabbits; conditions: finafloxacin compositions compared to CILOXAN
[15] = Ex vivo corneal perfusion model; assay type: in vitro ADME; conditions: 0.1 mM test solutions at pH 7.3, ex vivo, FIG. 2
Description: FIG. 2 presents comparative corneal perfusion data for several quinolone antimicrobials (including finafloxacin) using an ex vivo model. 0.1 mM test solutions at pH 7.3 of four quinolone antimicrobials were compared in the model.

[16] = tested on: Pseudomonas aeruginosa; assay: Guinea pig model of acute otitis externa (AOE); assay type: in vivo; conditions: for eradication of Pseudomonas: 0.3% composition
Description: Guinea pig ears were slightly abraded and 200 μl of bacterial culture (10^8 CFU) of P. aeruginosa were instilled into each ear. Ears were lavaged with saline and plated onto Pseudomonas isolation media. FIGS. 1a-1d summarize the results of these studies. […] Lower concentration finafloxacin compositions (0.03% and 0.003%) still achieved very substantial 5-6 log reductions of Pseudomonas in the model. […] Using a lower concentration composition (0.03%, shown in FIG. 1c) finafloxacin achieved a 4 log CFU reduction in the single dose study.

[17] = In vivo ototoxicity study, outer ear irritation; parameters: species or system Rabbit; conditions: 0.3% pH 5.7, 0.3%, 0.6%, 1.0% pH 7.5 (0.3% Mg and BAC), 0.2 mL bid for 7 days followed by 7 day observations
Description: TABLE 3 below presents the results of toxicity testing performed in two animals models (chinchilla and rabbit).

[18] = at pH 5.8, N = 10, read-out: MIC50

| SMILES | MIC50 ([2]; at pH 5.8, N = 8) [mg/L] | MIC50 ([3]; at pH 5.8, N = 14) [mg/L] | MIC50 ([4]; at pH 5.8, N = 10) [mg/L] | MIC50 ([5]; at pH 5.8) [mg/L] | MIC50 ([6]; at pH 5.8) [mg/L] | MIC50 ([7]; at pH 5.8, N = 11) [mg/L] | MIC50 ([8]; at pH 5.8, N = 12) [mg/L] | MIC50 ([9]; at pH 5.8, N = 8) [mg/L] | MIC50 [10, 18] [mg/L] | MIC50 ([11]; at pH 5.8) [mg/L] | MIC50 ([12]; at pH 5.8, N = 10) [mg/L] | MIC50 ([13]; at pH 5.8, N = 12) [mg/L] | other results |
| --- | --- | --- | --- | --- | --- | --- | --- | --- | --- | --- | --- | --- | --- |
| O=C(O)c1cn(C2CC2)c2cc(N3CCNCC3)c(F)cc2c1=O [Ciprofloxacin] | 1 (≈ 3.02 µM) | 1 (≈ 3.02 µM) | 256 (≈ 773 µM) | 0.016 (≈ 0.0483 µM) | 1 (≈ 3.02 µM) | 64 (≈ 193 µM) | 128 (≈ 386 µM) | 0.5 (≈ 1.51 µM) | 0.125 (≈ 0.377 µM) | 0.25 (≈ 0.754 µM) | 128 (≈ 386 µM) | 128 (≈ 386 µM) | corneal stroma tissue concentration ([1]; 45 μl of 0.3% test composition instilled bilaterally, topical, FIG. 3): greater concentrations immediately following instillation; aqueous humor tissue concentration ([1]; 45 μl of 0.3% test composition instilled bilaterally, topical, FIG. 4): greater concentrations immediately following instillation |
| N#Cc1c(N2C[C@@H]3NCCO[C@H]3C2)c(F)cc2c(=O)c(C(=O)O)cn(C3CC3)c12 [Finafloxacin, 8-cyano-1-cyclopropyl-6-fluoro-7-[(4aS,7aS)-hexahydropyrrolo[3,4-b]-1,4-oxazin-6(2H)-yl]-1,4-dihydro-4-oxo-3-quinolinecarboxylic acid] | 0.016 (≈ 0.0402 µM) | 1 (≈ 2.51 µM) | 4 (≈ 10 µM) | 0.008 (≈ 0.0201 µM) | 0.25 (≈ 0.628 µM) | 16 (≈ 40.2 µM) | 2 (≈ 5.02 µM) | 0.016 (≈ 0.0402 µM) | 0.25 (≈ 0.628 µM) | 0.125 (≈ 0.314 µM) | 8 (≈ 20.1 µM) | 4 (≈ 10 µM) | aqueous humor tissue concentration ([1]; rabbit, in vivo): comparable at later time points; corneal stroma tissue concentration ([1]; rabbit, in vivo): comparable at later time points; Pseudomonas CFU reductions [14]: inferior Pseudomonas CFU reductions compared to CILOXAN®; corneal perfusion [15]: better corneal perfusion properties than the ciprofloxacin test composition and demonstrates less perfusion relative to the ofloxacin test composition; log reductions of Pseudomonas ([16]; 0.003% composition, two doses, FIG. 1a): 5-6 log; effect of preservative (BAC) on efficacy against Pseudomonas ([16]; 0.03% and 0.3% compositions with BAC compared to self-preserved compositions, FIG. 1d): does not affect the efficacy; CFU reduction ([16]; 0.03% composition, single dose study, FIG. 1c): 4 log CFU; log reductions of Pseudomonas ([16]; 0.03% composition, two doses, FIG. 1a): 5-6 log; performance compared to ciprofloxacin and ofloxacin compositions ([16]; 0.03%, single dose study, FIG. 1c): performed as well as the ciprofloxacin composition and better than the ofloxacin composition; eradication of Pseudomonas ([16]; single dose study, FIG. 1b): almost complete eradication of Pseudomonas; eradication of Pseudomonas ([16]; two separate doses, FIG. 1a): almost complete eradication of Pseudomonas; performance compared to ciprofloxacin ([16]; tests summarized in FIG. 1a, two doses): performed as well as ciprofloxacin; outer ear irritation [17]: No indications; outer ear irritation ([17]; listed as finafloxacin): did not demonstrate inner or outer ear irritation |
| CC1COc2c(N3CCN(C)CC3)c(F)cc3c(=O)c(C(=O)O)cn1c23 (stereo not shown) [Ofloxacin] | 1 (≈ 2.77 µM) | 4 (≈ 11.1 µM) | 512 (≈ 1420 µM) | 0.031 (≈ 0.0858 µM) | 2 (≈ 5.53 µM) | 256 (≈ 708 µM) | 32 (≈ 88.6 µM) | 1 (≈ 2.77 µM) | 0.5 (≈ 1.38 µM) | 1 (≈ 2.77 µM) | 16 (≈ 44.3 µM) | 64 (≈ 177 µM) | MIC50 ([2]; at pH 7, N = 8): 0.25 mg/L (≈ 0.692 µM); MIC50 ([3]; at pH 7, N = 14): 2 mg/L (≈ 5.53 µM); MIC50 ([4]; at pH 7, N = 10): 16 mg/L (≈ 44.3 µM); MIC50 ([5]; at pH 7): 0.031 mg/L (≈ 0.0858 µM); MIC50 ([6]; at pH 7): 1 mg/L (≈ 2.77 µM); MIC50 ([7]; at pH 7, N = 11): 64 mg/L (≈ 177 µM); MIC50 ([8]; at pH 7, N = 12): 16 mg/L (≈ 44.3 µM); MIC50 ([9]; at pH 7, N = 8): 0.25 mg/L (≈ 0.692 µM); MIC50 ([10]; pH 7): 0.125 mg/L (≈ 0.346 µM); MIC50 ([11]; at pH 7): 0.25 mg/L (≈ 0.692 µM); MIC50 ([12]; at pH 7, N = 10): 128 mg/L (≈ 354 µM); MIC50 ([13]; at pH 7, N = 12): 32 mg/L (≈ 88.6 µM) |
